Article PMC6156125, “Chemistry and Hypoglycemic Activity of GPR119 Agonist ZB-16” (Frontiers in Endocrinology, 2018)
Converted amounts (≈) assume the structure as drawn.

What was measured:
human GPR119 (hGPR119) = target: T1, human GPR119 (hGPR119) (Homo sapiens, UniProt Q8TDV5); assay: Specific (agonistic) activity in vitro, cAMP increase (Lance Ultra cAMP kit) in CHO-K1 cells expressing hGPR119; format: cell-based; conditions: CHO-K1 hGPR119, cAMP
T1 construct: expressed in transfected cells; host or cells: CHO-K1 (Chinese hamster ovary)
T1 sequence (Q8TDV5 1-335): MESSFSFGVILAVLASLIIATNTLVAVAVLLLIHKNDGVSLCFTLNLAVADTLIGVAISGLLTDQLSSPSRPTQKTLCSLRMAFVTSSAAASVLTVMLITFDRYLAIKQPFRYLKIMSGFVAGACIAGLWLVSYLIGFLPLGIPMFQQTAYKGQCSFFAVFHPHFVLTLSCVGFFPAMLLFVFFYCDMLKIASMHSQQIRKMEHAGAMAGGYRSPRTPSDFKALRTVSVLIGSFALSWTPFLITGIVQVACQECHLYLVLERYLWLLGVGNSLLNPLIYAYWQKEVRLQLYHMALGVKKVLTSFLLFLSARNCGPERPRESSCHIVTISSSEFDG
Procedure: Specific activity was evaluated using an immortalized Chinese hamster ovary cell line CHO-K1 steadily expressed human GPR119 (hGPR119). The cells (10^7 ml^−1) were cultured in Dulbecco's modified Eagle medium (DMEM) modified with 10% fetal bovine serum (FBS), revolved continuously at 50 rpm at 37°C in 8% CO2 for 3–4 days. Lance Ultra cAMP kit (Perkin Elmer, Waltham, MA, USA) was chosen as the experimental platform ([13]). The experiments were performed in accordance to the manufacturer's instructions. The agonistic activity of the test compounds was estimated by the increase in intracellular cAMP concentration, assuming the hGPR119 activation is followed by the activation of cellular adenylate cyclase, which increases intracellular cAMP levels ([4], [14]). Known agonists of hGPR119 receptors were used as positive controls to determine the maximal possible effect (MPE). The activity of test compounds was expressed in terms of median effective concentration (EC50).

physchem = conditions: kinetic from dmso stock
[1] = Biotransformation in vitro, microsomal stability (human); format: in vitro ADME; conditions: for ER / CLh: Human microsomal fraction; for CLh: in mL/min/kg (unit assumed); for microsomal CLint at 0.5 μM / half-life at 0.5 μM: liver microsomal fraction; for half-life at 0.5 μM: NADPH, read-out: t1/2, min
Procedure: (§1) The metabolism of the compounds was studied in commercially available microsomal fractions derived from human and rat hepatocytes. Test compounds (0.5 μM) were incubated with microsomal fractions in the presence of NADPH during 30 min in a shaker at 37°C. Reactions were stopped at 0, 5, 10, 15, and 30 min by adding acetonitrile. After proteins precipitation, the remaining amount of the test compound in the supernatant was detected with high performance liquid chromatography tandem-mass spectrometry (HPLC-MS/MS) method using Agilent 1260 liquid chromatograph (Agilent Technologies, Santa Clara, CA, USA) and a QTRAP6500 triple quadrupole mass spectrometer with a TurboIonSpray electro-spraying module (ABSciex, Foster City, CA, USA) ([15]). Incubation was performed twice, with at least 2 measurements for each replicate (n ≥ 3). The half-life (T1/2), the clearance in vitro (CLint) and the remaining amount of substance (% of initial quantity) were calculated.

[2] = Biotransformation in vitro, microsomal stability (rat); format: in vitro ADME; conditions: for ER / CLh: Rat microsomal fraction; for CLh: in mL/min/kg (unit assumed); for microsomal CLint at 0.5 μM / half-life at 0.5 μM: liver microsomal fraction; for half-life at 0.5 μM: NADPH, read-out: t1/2, min
Procedure: as §1

[3] = Biotransformation in vitro, microsomal stability (mouse); format: in vitro ADME
Procedure: as §1

CYP1A2 = target: T2, CYP1A2 (Homo sapiens, UniProt P05177); assay: CYP inhibition, Vivid CYP450 Screening Kit; format: in vitro ADME; conditions: 0.0046 to 10 μM tested
T2 construct: purchased Invitrogen Corporation, Carlsbad, CA, USA
T2 sequence (P05177 1-516): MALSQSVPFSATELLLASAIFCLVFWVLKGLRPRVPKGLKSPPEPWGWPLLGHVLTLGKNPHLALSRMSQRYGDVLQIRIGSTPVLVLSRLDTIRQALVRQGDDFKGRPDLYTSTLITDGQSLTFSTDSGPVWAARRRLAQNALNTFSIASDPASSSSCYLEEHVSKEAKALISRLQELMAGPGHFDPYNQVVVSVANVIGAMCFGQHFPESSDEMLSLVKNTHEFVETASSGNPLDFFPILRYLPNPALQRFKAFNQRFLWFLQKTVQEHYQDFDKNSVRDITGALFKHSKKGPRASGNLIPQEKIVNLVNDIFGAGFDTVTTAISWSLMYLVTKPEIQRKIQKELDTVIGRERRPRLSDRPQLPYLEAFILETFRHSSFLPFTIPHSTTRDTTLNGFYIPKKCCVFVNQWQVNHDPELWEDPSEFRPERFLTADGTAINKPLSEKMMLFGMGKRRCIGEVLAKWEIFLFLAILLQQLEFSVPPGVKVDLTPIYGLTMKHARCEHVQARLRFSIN
Procedure: (§2) Briefly, the reaction was initiated by adding NADP^+ and a substrate converted to fluorescent derivates by specific CYP isozyme. The reaction was terminated by adding 1M Tris. The fluorescence of the reaction product, which was proportional to CYP isozyme activity, was measured. […] The minimal signal was defined as the signal obtained without enzyme incubation. The inhibitory action of test compounds on the CYP isozymes was expressed in terms of median inhibitory concentration (IC50).

CYP2C19 = target: T3, CYP2C19 (Homo sapiens, UniProt P33261); assay: CYP inhibition, Vivid CYP450 Screening Kit; format: in vitro ADME; conditions: 0.0046 to 10 μM tested
T3 construct: purchased Invitrogen Corporation, Carlsbad, CA, USA
Procedure: as §2

CYP2C9 = target: T4, CYP2C9 (Homo sapiens, UniProt P11712); assay: CYP inhibition, Vivid CYP450 Screening Kit; format: in vitro ADME; conditions: 0.0046 to 10 μM tested
T4 construct: purchased Invitrogen Corporation, Carlsbad, CA, USA
Procedure: as §2

CYP2D6 = target: T5, CYP2D6 (Homo sapiens, UniProt P10635); assay: CYP inhibition, Vivid CYP450 Screening Kit; format: in vitro ADME; conditions: 0.0046 to 10 μM tested
T5 construct: purchased Invitrogen Corporation, Carlsbad, CA, USA
Procedure: as §2

CYP3A4 = target: T6, CYP3A4 (Homo sapiens, UniProt P08684); assay: CYP inhibition, Vivid CYP450 Screening Kit; format: in vitro ADME; conditions: 0.0046 to 10 μM tested
T6 construct: purchased Invitrogen Corporation, Carlsbad, CA, USA
Procedure: as §2

hERG potassium channels = target: T7, hERG potassium channels (Homo sapiens, UniProt Q12809); assay: Cardiac toxicity, Predictor hERG fluorescence polarization binding
T7 construct: purchased Invitrogen Corporation, Carlsbad, CA, USA
Procedure: Cardiac toxicity was evaluated by estimating the influence of each substance on hERG potassium channels using the in vitro test system Invitrogen® PredictorTM hERG (Invitrogen Corporation, Carlsbad, CA, USA), containing Predictor hERG membrane preparations, fluorescent tracer stock solution and an assay buffer solution. Experimental procedures were conducted in accordance with the PredictorTM hERG test system's manufacturer instructions. Assays were performed in 384-well microplates. Each well contained 5 μL aliquot of each concentration of test compound, 10 μL of (2X) membrane preparation and 5 μL of working tracer solution. The cumulative reaction volume was 20 μl with 1% of DMSO ([19]). All procedures were performed at 4 replicates for each concentration. The plate was allowed to incubate at room temperature for at least 1 h prior to fluorescence polarization measurements performed with a microplate reader Infinite M1000 PRO (Tecan).

[4] = system: rats with streptozotocin-nicotinamide (STZ-NA) induced T2D; assay: Hypoglycemic activity after continuous (28 days) oral administration in T2D rat model, OGTT; format: in vivo; conditions: daily oral ZB-16 1 mg/kg or sitagliptin 10 mg/kg for 28 days, STZ-NA T2D
Procedure: Procedures were performed in 40 female Wistar rats weighing 250–280 g. Streptozotocin-nicotinamide-induced rat model of T2D was used ([24], [25]). Briefly, streptozotocin (Sigma, St. Louis, MO, USA) was administered i.p. to overnight fasted rats (65 mg/kg in 100 mmol/l citrate buffer, Ph 4.5). Nicotinamide (Sigma, St. Louis, MO, USA) (230 mg/kg) dissolved in saline was administered i.p. 15 min before streptozotocin. STZ-NA T2D had been confirmed 72 h after in rats with blood glucose levels in a range 9–14 mmol/l measured in fasting (6 h) conditions. […] Following the continuous oral administration of sitagliptin (10 mg/kg), ZB-16 (1 mg/kg) or saline during 28 days STZ-NA T2D confirmation the fasting blood glucose levels were measured, and oral glucose tolerance test (OGTT) was performed. For OGTT rats received an oral dose of […] glucose dissolved in saline; blood glucose levels were monitored every 30 min for 2 h after glucose administration. Sitagliptin dose was chosen in accordance with published data ([26]).

[5] = Britton-Robinson universal buffer, pH 2, aqueous buffer
[6] = Britton-Robinson universal buffer, pH 4, aqueous buffer
[7] = Britton-Robinson universal buffer, pH 7, aqueous buffer

T7 sequence (Q12809 whole entry): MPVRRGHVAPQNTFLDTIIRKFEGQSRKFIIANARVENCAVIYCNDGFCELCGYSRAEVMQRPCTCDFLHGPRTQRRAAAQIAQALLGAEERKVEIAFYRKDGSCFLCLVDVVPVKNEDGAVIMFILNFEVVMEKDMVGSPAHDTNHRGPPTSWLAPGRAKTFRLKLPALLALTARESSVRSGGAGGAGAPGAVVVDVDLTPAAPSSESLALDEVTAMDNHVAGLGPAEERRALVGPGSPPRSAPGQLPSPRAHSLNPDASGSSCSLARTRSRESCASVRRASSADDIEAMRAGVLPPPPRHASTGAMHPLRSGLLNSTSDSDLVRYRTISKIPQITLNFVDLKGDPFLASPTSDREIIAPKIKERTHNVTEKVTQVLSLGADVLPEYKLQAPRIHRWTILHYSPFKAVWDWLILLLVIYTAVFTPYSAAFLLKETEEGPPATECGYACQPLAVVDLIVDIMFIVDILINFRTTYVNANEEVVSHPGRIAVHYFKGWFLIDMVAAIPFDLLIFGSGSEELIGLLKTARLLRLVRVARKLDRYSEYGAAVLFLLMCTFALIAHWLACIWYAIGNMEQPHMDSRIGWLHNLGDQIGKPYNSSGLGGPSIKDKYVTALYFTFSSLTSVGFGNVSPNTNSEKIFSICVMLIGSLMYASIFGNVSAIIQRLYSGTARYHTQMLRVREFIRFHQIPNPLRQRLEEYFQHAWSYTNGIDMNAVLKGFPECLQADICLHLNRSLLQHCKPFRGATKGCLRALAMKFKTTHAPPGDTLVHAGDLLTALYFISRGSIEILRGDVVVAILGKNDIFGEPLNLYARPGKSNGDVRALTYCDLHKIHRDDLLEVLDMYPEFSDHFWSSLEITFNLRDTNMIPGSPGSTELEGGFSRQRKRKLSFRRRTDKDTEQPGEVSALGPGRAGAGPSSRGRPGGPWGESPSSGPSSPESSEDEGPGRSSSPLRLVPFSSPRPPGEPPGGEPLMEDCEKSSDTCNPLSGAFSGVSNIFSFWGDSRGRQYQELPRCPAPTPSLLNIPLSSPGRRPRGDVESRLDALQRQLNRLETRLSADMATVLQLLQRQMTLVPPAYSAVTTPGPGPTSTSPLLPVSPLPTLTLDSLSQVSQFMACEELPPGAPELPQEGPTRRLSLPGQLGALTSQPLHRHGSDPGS
T3 sequence (P33261 whole entry): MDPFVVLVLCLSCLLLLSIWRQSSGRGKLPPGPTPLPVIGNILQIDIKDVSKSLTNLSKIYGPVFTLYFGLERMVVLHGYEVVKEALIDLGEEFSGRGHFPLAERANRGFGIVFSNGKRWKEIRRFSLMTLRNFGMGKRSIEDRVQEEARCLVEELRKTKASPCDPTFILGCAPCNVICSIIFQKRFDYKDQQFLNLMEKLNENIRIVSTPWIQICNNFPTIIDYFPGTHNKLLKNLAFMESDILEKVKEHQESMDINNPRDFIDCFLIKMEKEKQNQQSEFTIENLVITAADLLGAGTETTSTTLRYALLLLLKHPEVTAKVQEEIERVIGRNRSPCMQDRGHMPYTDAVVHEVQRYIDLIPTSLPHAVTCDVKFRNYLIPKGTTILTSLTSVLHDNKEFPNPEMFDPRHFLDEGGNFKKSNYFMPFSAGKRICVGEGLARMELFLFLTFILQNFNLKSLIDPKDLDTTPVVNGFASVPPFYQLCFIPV
T6 sequence (P08684 whole entry): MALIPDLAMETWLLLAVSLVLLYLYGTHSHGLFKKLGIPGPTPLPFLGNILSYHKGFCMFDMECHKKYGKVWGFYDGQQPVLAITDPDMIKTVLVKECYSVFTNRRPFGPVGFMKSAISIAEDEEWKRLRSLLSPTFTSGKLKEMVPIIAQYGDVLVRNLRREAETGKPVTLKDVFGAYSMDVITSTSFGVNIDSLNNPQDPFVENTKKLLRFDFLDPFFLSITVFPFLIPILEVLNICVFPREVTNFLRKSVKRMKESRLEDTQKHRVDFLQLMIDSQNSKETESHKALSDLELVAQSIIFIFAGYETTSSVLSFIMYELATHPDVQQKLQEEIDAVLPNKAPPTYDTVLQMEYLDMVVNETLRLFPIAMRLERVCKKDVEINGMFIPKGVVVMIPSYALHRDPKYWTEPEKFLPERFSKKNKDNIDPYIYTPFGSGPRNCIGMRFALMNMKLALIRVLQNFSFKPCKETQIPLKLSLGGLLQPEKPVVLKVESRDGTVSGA
T5 sequence (P10635 whole entry): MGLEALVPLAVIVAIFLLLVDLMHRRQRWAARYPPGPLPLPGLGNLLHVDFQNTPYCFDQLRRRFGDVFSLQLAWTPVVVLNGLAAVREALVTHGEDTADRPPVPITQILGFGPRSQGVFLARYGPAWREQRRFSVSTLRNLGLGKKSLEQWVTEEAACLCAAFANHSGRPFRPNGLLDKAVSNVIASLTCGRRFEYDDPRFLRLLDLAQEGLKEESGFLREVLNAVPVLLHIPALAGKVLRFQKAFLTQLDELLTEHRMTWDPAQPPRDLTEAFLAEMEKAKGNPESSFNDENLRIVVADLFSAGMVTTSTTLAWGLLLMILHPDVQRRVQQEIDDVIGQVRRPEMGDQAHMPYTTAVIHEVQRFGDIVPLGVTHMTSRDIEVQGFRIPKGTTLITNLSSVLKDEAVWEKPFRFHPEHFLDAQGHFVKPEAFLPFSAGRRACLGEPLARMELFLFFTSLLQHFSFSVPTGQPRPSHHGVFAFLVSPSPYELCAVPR
T4 sequence (P11712 whole entry): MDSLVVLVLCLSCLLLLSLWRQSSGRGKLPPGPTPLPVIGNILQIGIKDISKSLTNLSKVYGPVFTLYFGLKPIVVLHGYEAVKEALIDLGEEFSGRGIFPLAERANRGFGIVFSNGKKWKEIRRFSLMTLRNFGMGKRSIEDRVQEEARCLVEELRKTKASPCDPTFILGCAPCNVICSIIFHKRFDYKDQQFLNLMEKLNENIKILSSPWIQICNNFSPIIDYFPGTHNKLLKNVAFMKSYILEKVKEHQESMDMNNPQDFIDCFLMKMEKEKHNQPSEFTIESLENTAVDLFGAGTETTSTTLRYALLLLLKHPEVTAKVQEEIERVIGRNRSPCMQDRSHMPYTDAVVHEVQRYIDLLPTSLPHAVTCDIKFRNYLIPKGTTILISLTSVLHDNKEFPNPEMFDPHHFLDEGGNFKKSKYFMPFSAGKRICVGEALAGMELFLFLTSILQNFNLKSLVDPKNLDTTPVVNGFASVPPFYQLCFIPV

Row | SMILES | EC50 (human GPR119 (hGPR119)) [µM] | ER [1] | CLh [1] | microsomal CLint at 0.5 μM [1] [µL/min/mg] | half-life at 0.5 μM [1] [min] | ER [2] | CLh [2] | microsomal CLint at 0.5 μM [2] [µL/min/mg] | half-life at 0.5 μM [2] [min] | solubility (physchem; [5]) [µM] | solubility (physchem; [6]) [µM] | solubility (physchem; [7]) [µM] | further results
1 | CCN1C(=O)c2ccccc2S(=O)(=O)c2ccc(C(=O)NCCc3ccc(Cl)cc3)cc21 [C530-0315] | 0.0713 | – | – | – | – | – | – | – | – | – | – | – | –
2 | CCN1C(=O)c2ccccc2S(=O)(=O)c2ccc(C(=O)NCc3ccc(F)cc3)cc21 [C530-0339] | 10.7 | – | – | – | – | – | – | – | – | – | – | – | –
3 | CC/C(=C(/CC)c1ccc(O)cc1)c1ccc(O)cc1 [Diethylstilbestrol, reference compound] | – | – | – | – | – | – | – | – | – | – | – | – | Solubility (μM) UB, 2% DMSO pH 2 (pH 2): 15 μM; Solubility (μM) UB, 2% DMSO pH 4 (pH 4): 14 μM; Solubility (μM) UB, 2% DMSO pH 7 (pH 7): 14 μM; solubility (physchem; pH 2, aqueous buffer): 12 µM (≈ 3.22 µg/mL); solubility (physchem; pH 4, aqueous buffer): 10 µM (≈ 2.68 µg/mL); solubility (physchem; pH 7, aqueous buffer): 12 µM (≈ 3.22 µg/mL)
4 | CC(C)(C)OC(=O)N1CCC(COc2ccc(-c3ccc4c(c3)OCS4(=O)=O)cc2F)CC1 [ZB-09] | – | 0.94 | 20.44 | 666 | 4.16 | 0.74 | 40.97 | 89.2 | 31.1 | < 3 | < 3 | < 3 | EC50 (human GPR119 (hGPR119); values of the text): 0.004 µM; CLh ([3]; Mouse microsomal fraction): 84.06; ER ([3]; Mouse microsomal fraction): 0.93; microsomal CLint at 0.5 μM ([3]; liver microsomal fraction): 324 µL/min/mg; half-life at 0.5 μM ([3]; liver microsomal fraction, read-out: t1/2, min): 8.57 min
5 | CC(C)OC(=O)N1CCC(COc2ccc(-c3ccc4c(c3)OCS4(=O)=O)cc2F)CC1 [ZB-17] | 0.0125 | – | – | – | – | – | – | – | – | < 3 | < 3 | < 3 | –
6 | O=S1(=O)COc2cc(-c3ccc(OCC4CCN(CC(F)(F)F)CC4)c(F)c3)ccc21 [ZB-18] | 0.0635 | – | – | – | – | – | – | – | – | 25 (≈ 11.5 µg/mL) | < 3 | < 3 | –
7 | CC(C)(C)OC(=O)N1CCC(COc2ccc(-c3ccc4c(c3)OCS4(=O)=O)cn2)CC1 [ZB-19] | 0.011 | 0.95 | 20.66 | 1110 | 2.5 | 0.81 | 44.29 | 126 | 21.9 | < 3 | < 3 | < 3 | –
8 | O=S1(=O)COc2cc(-c3ccc(OCC4CCN(c5ncc(Cl)cn5)CC4)nc3)ccc21 [ZB-20] | 0.0293 | 0.76 | 16.57 | 68 | 40.8 | 0.41 | 22.53 | 21.2 | 131 | < 3 | < 3 | < 3 | EC50 (human GPR119 (hGPR119); values of the text): 0.029 µM; IC50 (CYP1A2): > 10 µM; IC50 (CYP2C19): > 10 µM; IC50 (CYP2C9): > 10 µM; IC50 (CYP2D6): > 10 µM; IC50 (CYP3A4): > 10 µM; Average polarization mP (n = 4) (hERG potassium channels; 1 μM): 261 mP; Unbound hERG % (hERG potassium channels; 1 μM): 89%; Average polarization mP (n = 4) (hERG potassium channels; 10 μM): 263 mP; Unbound hERG % (hERG potassium channels; 10 μM): 91%
9 | N[C@@H](CC(=O)N1CCn2c(nnc2C(F)(F)F)C1)Cc1cc(F)c(F)cc1F [sitagliptin, reference compound] | – | – | – | – | – | – | – | – | – | – | – | – | blood glucose levels [4]: reduction
